Results from patent US20240025863A1, “SOS1 PROTEIN DEGRADERS, PHARMACEUTICAL COMPOSITIONS THEREOF, AND THEIR THERAPEUTIC APPLICATIONS” (BioTheryX, Inc., priority 2020, published 2024).

How the values were obtained:
Assay type in all cases: cell-based
SW48 cells (wt) = assay: Cell viability assay (CellTiter-Glo), SW48 cells; conditions: Homo sapiens, 72 h; SW48 cells, 3 days incubation, CellTiter-Glo luminescence; read-out: Inhibition of Cancerous Cells IC50 SW48 (wt)
Protocol: (§1) H358, H23, SW48, and AsPC-1 cells were cultured in RPMI 1640 media supplemented with 10% fetal bovine serum, streptomycin, and penicillin. Lovo and SW480 cells were cultured in DMEM media supplemented with 10% fetal bovine serum, streptomycin, and penicillin. The cell lines were plated in their respective medium supplemented with 2.5% fetal bovine serum, streptomycin, and penicillin. All cell lines were plated in white walled 96-well plates at 2,000 cells/well or 384-well plates at 500 cells/well, except Lovo, which were plated at 4,000 or 1,000 cells/well, respectively. The cells were incubated in DMSO (control) or a compound for 3 days at 37° C. under 5% CO2. A CELLTITER-GLO® reagent (100 μL) was then added to each well. After a 10 min incubation with shaking, luminescence was measured using an ENVISION® multimode plate reader.

Lovo cells (G13D) = assay: Cell viability assay (CellTiter-Glo), Lovo cells; conditions: Homo sapiens, 72 h; Lovo cells, 3 days incubation, CellTiter-Glo luminescence; read-out: Inhibition of Cancerous Cells IC50 Lovo (G13D)
Protocol: as §1

H358 cells (G12C) = assay: Cell viability assay (CellTiter-Glo), H358 cells; conditions: Homo sapiens, NCI-H358, 72 h; H358 cells, 3 days incubation, CellTiter-Glo luminescence; read-out: Inhibition of Cancerous Cells IC50 H358 (G12C)
Protocol: as §1

SW480 cells (G12V) = assay: Cell viability assay (CellTiter-Glo), SW480 cells; conditions: Homo sapiens, 72 h; SW480 cells, 3 days incubation, CellTiter-Glo luminescence; read-out: Inhibition of Cancerous Cells IC50 SW480 (G12V)
Protocol: as §1

| IC50 (SW48 cells (wt)) [nM] | IC50 (Lovo cells (G13D)) [nM] | IC50 (H358 cells (G12C)) [nM] | IC50 (SW480 cells (G12V)) [nM] | SMILES |
| --- | --- | --- | --- | --- |
| 3100 | 2800 | 4500 | 5000 | COc1cc2c(N[C@H](C)c3cccc(Br)c3)nc(C)nc2cc1OCCCCCN1CCN(C(=O)COc2cc(F)cc3c2CN(C2CCC(=O)NC2=O)C3=O)CC1 (stereo partly drawn) [Compound A14, 3-(4-(2-(4-(5-((4-(((R)-1-(3-Bromophenyl)ethyl)amino)-6-methoxy-2-methyl-quinazolin-7-yl)oxy)pentyl)piperazin-1-yl)-2-oxoethoxy)-6-fluoro-1-oxoisoindolin-2-yl)-piperidine-2,6-dione] |
| 410 | 260 | 550 | 370 | CNCc1ccccc1-c1csc([C@@H](C)Nc2nc(C)nc3cc(OCCCCCCCN4CCC(c5cc(F)cc6c5CN(C5CCC(=O)NC5=O)C6=O)CC4)c(OC)cc23)c1 (stereo partly drawn) [Compound A15, 3-(6-Fluoro-4-(1-(7-((6-methoxy-2-methyl-4-(((R)-1-(4-(2-((methylamino)-methyl)phenyl)thiophen-2-yl)ethyl)amino)quinazolin-7-yl)oxy)heptyl)piperidin-4-yl)-1-oxoisoindolin-2-yl)piperidine-2,6-dione] |
| 340 | 230 | 430 | 350 | CNCc1ccccc1-c1csc([C@H](C)Nc2nc(C)nc3cc(OCCCCCCCN4CCC(c5cc(F)cc6c5CN(C5CCC(=O)NC5=O)C6=O)CC4)c(OC)cc23)c1 (stereo partly drawn) [Compound A16, 3-(6-Fluoro-4-(1-(7-((6-methoxy-2-methyl-4-(((S)-1-(4-(2-((methylamino)-methyl)phenyl)thiophen-2-yl)ethyl)amino)quinazolin-7-yl)oxy)heptyl)piperidin-4-yl)-1-oxoisoindolin-2-yl)piperidine-2,6-dione] |
| 1100 | 760 | 1400 | 950 | COc1cc2c(N[C@H](C)c3cccc(Br)c3)nc(C)nc2cc1C1CCN(CCCCCN2CCC(c3cc(F)cc4c3CN(C3CCC(=O)NC3=O)C4=O)CC2)CC1 (stereo partly drawn) [Compound A17, 3-(4-(1-(5-(4-(4-(((R)-1-(3-Bromophenyl)ethyl)amino)-6-methoxy-2-methyl-quinazolin-7-yl)piperidin-1-yl)pentyl)piperidin-4-yl)-6-fluoro-1-oxoisoindolin-2-yl)piperidine-2,6-dione] |
| 810 | 950 | 830 | 1200 | COc1cc2c(N[C@H](C)c3cccc(Br)c3)nc(C)nc2c(CCCCCCCN2CCC(c3cc(F)cc4c3CN(C3CCC(=O)NC3=O)C4=O)CC2)c1OC (stereo partly drawn) [Compound A20, 3-(4-(1-(7-(4-(((R)-1-(3-Bromophenyl)ethyl)amino)-6,7-dimethoxy-2-methyl-quinazolin-8-yl)heptyl)piperidin-4-yl)-6-fluoro-1-oxoisoindolin-2-yl)piperidine-2,6-dione] |
| 430 | 380 | 1100 | 430 | COc1cc2c(N[C@H](C)c3cccc(Br)c3)nc(C)nc2cc1OCCCCCN1CCC(c2cc3c(cc2F)C(=O)N(C2CCC(=O)NC2=O)C3)CC1 (stereo partly drawn) [Compound A21, 3-(5-(1-(5-((4-(((R)-1-(3-Bromophenyl)ethyl)amino)-6-methoxy-2-methyl-quinazolin-7-yl)oxy)pentyl)piperidin-4-yl)-6-fluoro-1-oxoisoindolin-2-yl)piperidine-2,6-dione] |
| 300 | 330 | 760 | 290 | COc1cc2c(N[C@H](C)c3cccc(Br)c3)nc(C)nc2cc1OCCCCCCCCCN1CCC(c2cc3c(cc2F)C(=O)N(C2CCC(=O)NC2=O)C3)CC1 (stereo partly drawn) [Compound A23, 3-(5-(1-(9-((4-(((R)-1-(3-Bromophenyl)ethyl)amino)-6-methoxy-2-methyl-quinazolin-7-yl)oxy)nonyl)piperidin-4-yl)-6-fluoro-1-oxoisoindolin-2-yl)piperidine-2,6-dione] |
| 1300 | 400 | 1200 | 550 | COc1cc2c(N[C@H](C)c3cccc(Br)c3)nc(C)nc2cc1OCCCCCCCCCCCN1CCC(c2cc3c(cc2F)C(=O)N(C2CCC(=O)NC2=O)C3)CC1 (stereo partly drawn) [Compound A24, 3-(5-(1-(11-((4-(((R)-1-(3-Bromophenyl)ethyl)amino)-6-methoxy-2-methyl-quinazolin-7-yl)oxy)undecyl)piperidin-4-yl)-6-fluoro-1-oxoisoindolin-2-yl)piperidine-2,6-dione] |

Continued, compound first:

| SMILES | IC50 (SW48 cells (wt)) [nM] | IC50 (Lovo cells (G13D)) [nM] | IC50 (H358 cells (G12C)) [nM] | IC50 (SW480 cells (G12V)) [nM] |
| --- | --- | --- | --- | --- |
| COc1cc2c(N[C@H](C)c3cccc(Br)c3)nc(C)nc2cc1OCCCCCCCCC(=O)NCc1cccc2c1CN(C1CCC(=O)NC1=O)C2=O (stereo partly drawn) [Compound A6, 9-((4-(((R)-1-(3-bromophenyl)ethyl)amino)-6-methoxy-2-methylquinazolin-7-yl)oxy)-N-((2-(2,6-dioxopiperidin-3-yl)-1-oxoisoindolin-4-yl)methyl)nonanamide] | > 10000 | 4900 | 9900 | 8300 |
| COc1cc2c(N[C@H](C)c3cccc(Br)c3)nc(C)nc2cc1OCCCCCCCC(=O)NCc1cccc2c1CN(C1CCC(=O)NC1=O)C2=O (stereo partly drawn) [Compound A7, 8-((4-(((R)-1-(3-Bromophenyl)ethyl)amino)-6-methoxy-2-methylquinazolin-7-yl)oxy)-N-((2-(2,6-dioxopiperidin-3-yl)-1-oxoisoindolin-4-yl)methyl)octanamide] | 5000 | 3500 | 5400 | 6400 |
| COc1cc2c(N[C@H](C)c3cccc(Br)c3)nc(C)nc2cc1OCCCCCCCC(=O)NCc1ccc2c(c1)CN(C1CCC(=O)NC1=O)C2=O (stereo partly drawn) [Compound A8, 8-((4-(((R)-1-(3-Bromophenyl)ethyl)amino)-6-methoxy-2-methylquinazolin-7-yl)oxy)-N-((2-(2,6-dioxopiperidin-3-yl)-1-oxoisoindolin-5-yl)methyl)octanamide] | 400 | 970 | 1600 | 2100 |
| COc1cc2c(N[C@H](C)c3cccc(Br)c3)nc(C)nc2cc1OCCCCCCCCC(=O)NCc1ccc2c(c1)CN(C1CCC(=O)NC1=O)C2=O (stereo partly drawn) [Compound A9, 9-((4-(((R)-1-(3-Bromophenyl)ethyl)amino)-6-methoxy-2-methylquinazolin-7-yl)oxy)-N-((2-(2,6-dioxopiperidin-3-yl)-1-oxoisoindolin-5-yl)methyl)nonanamide] | 22 | 47 | 820 | 1200 |
| COc1cc2c(N[C@H](C)c3cccc(Br)c3)nc(C)nc2cc1OCCCCCN1CCC(c2cc(F)cc3c2CN(C2CCC(=O)NC2=O)C3=O)CC1 (stereo partly drawn) [Compound A11, 3-(4-(1-(5-((4-(((R)-1-(3-Bromophenyl)ethyl)amino)-6-methoxy-2-methyl-quinazolin-7-yl)oxy)pentyl)piperidin-4-yl)-6-fluoro-1-oxoisoindolin-2-yl)piperidine-2,6-dione] | 510 | 410 | 1600 | 560 |
| COc1cc2c(N[C@H](C)c3cccc(Br)c3)nc(C)nc2cc1OCCCCN1CCN(C(=O)COc2cc(F)cc3c2CN(C2CCC(=O)NC2=O)C3=O)CC1 (stereo partly drawn) [Compound A13, 3-(4-(2-(4-(4-((4-(((R)-1-(3-Bromophenyl)ethyl)amino)-6-methoxy-2-methyl-quinazolin-7-yl)oxy)butyl)piperazin-1-yl)-2-oxoethoxy)-6-fluoro-1-oxoisoindolin-2-yl)-piperidine-2,6-dione] | 5900 | 9800 | 7400 | 6600 |
